According to patent US20230338363A1, “COMBINATION CHEMO-IMMUNOTHERAPY FOR PANCREATIC CANCER USING THE IMMUNOGENIC EFFECTS OF AN IRINOTECAN SILICASOME NANOCARRIER PLUS ANTI-PD-1” (The Regents of the University of California, priority 2020, published 2023):
Structures can show the parent of a compound that is named as a salt.

What was measured:
orthotopic KPC tumor = test: Efficacy and immune parameters (IVIS, IHC) in orthotopic KPC tumor model; format: in vivo, mouse
Protocol: Panels B and C) IHC analysis to determine CRT (panel B) and LC3B (panel C) expression at the orthotopic tumor site. Imaging intensity was quantitatively expressed as fold increase that was normalized to the saline group. Representative IHC images are shown on the right. Bar is 50 µm. Panel D) Quantitative assessment of HMGB 1 release. The IHC images were analyzed by Aperio ImageScope software to determine protein released from the damaged nuclei, as described in FIG. 22. Data are expressed as mean ± SEM, n=3. *, p<0.05; **, p<0.01; ***, p<0.001 (1-way ANOVA followed by a Tukey’s test).
Additional IHC analysis was undertaken using the tumor samples collected in FIG. 5, panel A. Quantitative assessment of: Panel A) the CD8^+/ FoxP3^+ cell ratio; Panel B), perforin; Panel C) granzyme B; Panel D) IFN-γ production; and Panel E) PD-L1 expression. Representative IHC images appear in FIG. 18, panels A-C. Data are expressed as mean ± SEM, n=3. *, p<0.05; **, p<0.01; ***, p<0.001 (1-way ANOVA followed by a Tukey’s test).
Tumor-bearing mice received IV injection to deliver an IRIN dose of 40 mg/kg (free IRIN or IRIN silicasome) per injection every 3 days for a total of 3 administrations. Control animals received saline only. Animals were sacrificed 72 h after the last injection. To confirm the impact on tumor growth, ex vivo bioluminescence imaging was performed to assess image intensity at the primary and metastatic tumor sites. Primary tumors were fixed in 10% formalin, followed by paraffin embedding and sectioning to provide 4 µm slices for IHC analysis in the UCLA Translational Pathology Core Laboratory (TPCL). The slides were scanned and images were assessed by using Aperio ImageScope software (Leica). Primary antibodies to CD8 (#14-0808-82) and FoxP3 (#13-5773-82) were purchased from ThermoFisher; CRT (ab2907), while antibodies to HMGB1 (ab18256), granzyme B (ab4059), perforin (ab16074) and IFN-γ (ab9657) were purchased from Abcam. The antibody to LC-3 (#0231-100/LC3-5F10) was purchased from Nanotools, while the antibody to PD-L1 (#64988) was purchased from Cell Signaling Technology.

KPC cells [1] = test: Autophagy (LC3B, p62) and PD-L1 expression by IF staining and immunoblotting; format: cell-based, mouse
Protocol: KPC cells were seeded in the µ-Slide 8 well. After cell attachment, the cells were treated by IRIN at 300 µM for 24 h. Control treatments included exposure to PBS, chloroquine (32 µM), rapamycin (100 nM) and IFN-γ (10 ng/ml). Before IF staining, the cells were washed with PBS and fixed with 4% paraformaldehyde at RT for 15 minutes. Cells were treated in 1% BSA (blocking reagent) plus 0.2% triton-X100 in PBS for 30 minutes. Subsequently, the cells were incubated with primary antibody that recognizes LC3B (Cell Signaling #2775, 1:200) or p62/SQSTM1 (Cell Signaling #23214, 1:800) in 1% BSA containing PBS solution at 4° C. overnight. The sample was washed twice in PBS and further stained using an Alexa Fluor® 488 conjugated goat anti-rabbit secondary antibody (Thermo Fisher, A-11008, 1:1000) and 5 µg/mL Hoechst 33342 dye for 1 h. Cell surface staining for PD-L1 assessment was carried out in fixed (4% paraformaldehyde) cells, using a staining process similar to the above protocol. Primary PD-L1 antibody (Abcam, ab213480, 1: 500) and Alexa Fluor® 594 conjugated goat anti-rabbit secondary antibody (Thermo Fisher, A-11012, 1:1000) were used. The cells were visualized using a Leica SP8-MD confocal microscope under the 100x objective lens.
To confirm the confocal staining results for LC3B, p62 and PD-L1, western blotting experiments were performed in KPC cells exposed to IRIN (300 µM) or OX (500 µM) for 24 hr. Another experiment also looked at the dose-dependent effect of IRIN at concentrations of 75, 150, 300 and 600 µM for 24 h. Briefly, ~2×10^5 KPC cells per well were seeded in 6 well-plates. After drug exposure, KPC cells were harvested and treated with cold RIPA lysis buffer (Cell Signaling # 9806S), supplemented with a cocktail of protease and phosphatase inhibitors (Cell Signaling #5872) and incubated on ice for 30 mins. After centrifugation of the lysates at 12,000 rpm for 10 min, protein concentration was quantified by a Bradford assay (Biorad). Equal amounts of protein in the supernatants were loaded onto a 10-20% Tris-glycine SDS-PAGE gel (Invitrogen, Grand Island, NY). The proteins were subsequently transferred to a PVDF membrane. The membrane was blocked with 5% non-fat dry milk/TBST, before incubation with primary and HRP-conjugated secondary antibodies. The primary antibodies included: LC3B (Cell Signaling #2775), p62/SQSTM1 (Cell Signaling #5114), NF-κB p65 (Cell Signaling #8242), Phospho-NF-xB p65 (Cell Signaling #3033) and PD-L1 (Abcam, ab213480). The blots were developed by soaking in ECL substrate (Thermo Fisher Scientific). Densitometric analysis of each protein band on the film was quantified by ImageJ software and normalized to the intensity of a corresponding housekeeping protein.
(§1) The of the IRIN silicasome on lysosomal alkalization was performed at drug concentrations of 75 µM and 300 µM in KPC cells. Empty silicasomes (in which a 500 µg/mL particle dose is representative of an encapsulated IRIN dose of 300 µM) was included as control. The assessment of LC3B, p62 and PD-L1 immunoblotting and IF staining were performed in KPC cells during treatment with the IRIN silicasome or empty silicasomes, as described for the free drug.

KPC cells [2] = test: Lysosomal alkalization, LysoTracker Red DND 99 confocal microscopy; format: cell-based, mouse
Protocol: Approximately 1.5×10^4 KPC cells were seeded in µ-Slide 8 well (ibidi, 80826). To reveal the intracellular distribution of IRIN, attached KPC cells were treated with IRIN (300 µM) for 24 h. Cell membranes were stained using an Alexa Fluor® 594 conjugated WGA dye (Invitrogen™, W11262) at 2 µg/mL for 10 minutes. After washing, the cells were visualized using a Leica SP8-MD confocal microscope under the 100× objective lens. The excitation and emission wavelengths for IRIN were 405 nm and 440~490 nm, respectively^[51]
IRIN-treated KPC cells were washed and replenished with fresh media containing 100 nM DND-99 dye and 5 µg/mL Hoechst 33342 for nuclear staining. The cells were incubated at 37° C. for 0.5 h, followed by washing with phenol red free media. The cells were then visualized using a Leica SP8-MD confocal microscope under the 100× objective lens.
as §1

CCc1c2c(nc3ccc(OC(=O)N4CCC(N5CCCCC5)CC4)cc13)-c1cc3c(c(=O)n1C2)COC(=O)[C@]3(O)CC [IRIN, Irinotecan hydrochloride trihydrate]
tumor size by bioluminescence intensity (IVIS) vs saline (orthotopic KPC tumor; 40 mg/kg IV on days 8, 11, 14, sacrifice day 17): not statistically significant | IFN-γ production in the TME (IHC) (orthotopic KPC tumor; 40 mg/kg IV x3): significant increase | LC3B staining intensity at tumor site (IHC) (orthotopic KPC tumor; 40 mg/kg IV x3): significantly increased staining intensity | IF staining of LC3B and p62/SQSTM1 complexes (KPC cells [1]; 24 h, IRIN 300 µM, CQ 32 µM, RAP 100 nM): contemporaneous appearance of fluorescent LC3B puncta as well as p62 protein complexes | PD-L1 expression (KPC cells [1]; IRIN 300 µM or OX 500 µM, 24 h): robust cell surface expression of PD-L1 | autophagy flux (Western blotting of LC3 and p62) (KPC cells [1]; IRIN 300 µM or OX 500 µM, 24 h): inhibited autophagy flux | phosphorylation of p65 NF-κB subunit (KPC cells [1]; IRIN 300 µM, 24 hrs): induce the phosphorylation of the p65 (p-p65) subunit of NF-κB | ratio of LC3-II vs. LC3-I expression (immunoblotting) (KPC cells [1]; IRIN 75-600 µM, 24 h): dose-dependent increase | time at which a major DND 99 signal drop is observed (KPC cells [2]; 300 µM free IRIN): 1 h | IRIN dose at which a major DND 99 signal drop is discerned (KPC cells [2]; 24 hours): 20 µM | DND 99 relative staining intensity (KPC cells [2]; IRIN 300 µM, 24 h, untreated cells 57.9 ± 1.3, Image J): 13.9 ± 0.9
